Tests used:
[1] = system: myocardiale Radiocalciumaufnahme; assay: Inhibition of isoprenaline-induced myocardial radiocalcium uptake in conscious rats after oral dosing (method of Arndts); format: in vivo, Ratten; details: Rattus norvegicus, oral dose that inhibits by 50 % the myocardial radiocalcium uptake caused by 30 mg/kg s.c. Isoprenalin, read-out: H50
Description: 1. Bekanntlich ist der myocardiale Ca²⁺ Gehalt ein Maß für die hypoxische bzw. die durch toxische Catecholamindosen hervorgerufene Herzschädigung (Higgins et al. Mol. Cell. Cardiol. 10. 427-438, 1984; Nakanishi et. al., Am. J. Physiol. 242, 437-449, 1982; Fleckenstein A., Vorträge der Erlanger Physiol. Tagung 1970, Edit. Keidel, Springer Verl. Berlin; Heidelberg, New York, 1971). Umgekehrt ist die Inhibition der hypoxischen oder Isoprenalin-bedingten myocardialen Calciumaufnahme ein Maß für die cardioprotektive Effektivität von Calciumantagonisten (Fleckenstein s.o), von Calmodulinhibitoren (Higgins s.o.) und anderen Pharmaka, z.B. Betaadrenolytika (Arndts, Arzneimittelforschung, 25, 1279-1284 (1975)). Die cardioprotektive Wirkung wurde an wachen Ratten nach oraler Wirkstoffgabe anhand der von Arndts (s.o.) beschriebenen Methoden festgestellt und die Wirkungsstärke der Testsubstanzen als H₅₀-Werte angegeben; dieser Wert entspricht der Dosis, die die durch eine Gabe von 30 mg/kg s.c. Isoprenalin bedingte myocardiale Radiocalciumaufnahme bis 50 % hemmt. Hier erwiesen sich die vorliegenden Verbindungen als wirksamer als die bekannten Handelsprodukte Captopril und Enalapril. Die Ergebnisse sind in Tabelle I dargestellt.

[2] = system: ischämischen Langendorff-Herzen; assay: Ischaemic Langendorff heart, recovery of regular contractions after reperfusion (in vitro or ex vivo); details: ischaemic Langendorff hearts
Description: Hieraus läßt sich eine protektive Wirksamkeit der Substanzen auf Herzschädigungen während Hypoxie oder Ischämie ableiten.

Mäusen (ChbI:NMRI) = assay: Scopolamine test: passive avoidance reaction in mice; format: in vivo
Description: Durch den cholinerg-muskarinen Antagonisten Scopolamin wird bei Mensch und Tier eine vorübergehende Störung des Überganges von Inhalten des Kurzzeitgedächtnisses in das Langzeitgedächtnis hervorgerufen. Die auch klinisch bei gesunden Probanden durch Scopolamin auslösbaren, mnestischen Störungen sind in ihrer Ausprägung den psychopathologischen Veränderungen bei Patienten mit organischem Hirnsyndrom ähnlich (Drachman & Leavitt, 1974).
Der Scopolamin-Test wird an Gruppen von jeweils 10 männlichen, nicht nüchternen, naiven Mäusen (ChbI:NMRI; Körpergewicht 35 g) mit Hilfe einer passiven Vermeidereaktion durchgeführt. Das Testgerät besteht aus einer Skinner Box (30 cm × 26 cm × 29 cm) mit einem elektrifizierbaren Gitterboden und einer Plastikplattform (5 cm × 5 cm) an einer Seitenwand. Die Tiere werden einzeln in die Skinner Box gesetzt. Nach einer Orientierungsperiode von 30 sec werden kurze, unterbrochene Stromstöße von ca. 0,8 mA so oft an den Gitterboden der Box gelegt, bis das Tier gelernt hat, daß das Aufsuchen und Verweilen auf der Plastikplattform vor dem Stromstoß Sicherheit gewährt. Tiere, welche dies innerhalb von 120 sec nicht lernen, werden nicht weiter verwendet. Die anderen Mäuse werden unmittelbar nach Erlernen der passiven Vermeidereaktion in drei Gruppen (10 Tiere pro Gruppe) eingeteilt. Eine Gruppe erhält Scopolaminhydrobromid (0,6 mg/kg s.c.) und oral Vehikel (0,5 % Tylose); die zweite Gruppe Scopolaminhydrobromid sowie die zu testende Substanz per os in 0,5 % Tylose und die dritte Gruppe lediglich 0,5 % Tylose p.o.. Eine Stunde nach Application wird jedes Tier einzeln auf die Plattform gesetzt, um das Erinnerungsvermögen an die erlernte Vermeidereaktion zu prüfen. Das Kriterium besteht in der Bestimmung, ob die Maus während mindestens 60 sec. auf der Plattform verbleibt (Ja-Antwort) oder nicht (Nein-Antwort).
Etwa 75% der Tiere, welche ausschließlich mit 0,5 % Tylose behandelt wurden, verbleiben bei der abschließenden Prüfung länger als 60 sec. auf der Plattform: ein Ergebnis, welches als Ausdruck des guten Erinnerungsvermögens an die erlernte Erfahrung gedeutet werden kann. Nach Gabe von Scopolamin und Tylose verbleiben durchschnittlich etwa 25 % der Tiere auf der Plattform; dies zeigt die erhebliche Beeinträchtigung des Erinnerungsvermögens nach Gabe von Scopolamin. Verbindungen der Formel I antagonisieren die Scopolaminwirkung statistisch signifikant. Zum Beispiel ist die oben genannte Verbindung A (N-[N-(1-L-Ethoxycarbonyl-3-phenylpropyl)-L-alanyl]-4,5,6,7-tetrahydro-thieno[2,3-c]-pyridin-7-L-carbonsäure) bei einer Dosis über 0,1 mg/kg p.o. (insbesondere ab 0,5 mg/kg p.o.) wirksam. In Gegensatz dazu sind Captopril bei Dosen von 10 und 30 mg/kg p.o. und Enalapril bei einer Dosis von 5 mg/kg p.o. unwirksam.

[3] = system: Ca²⁺-Efflux an der Kaninchen-Aorta; assay: Stimulated Ca2+ efflux in rabbit aorta (method of van Breemen et al. / Casteels and Droogman); format: cell-based; details: Oryctolagus cuniculus, read-out: Hemmung des durch 10⁻⁵ mol/l Noradrenalin stimulierten Ca²⁺ Efflux
Description: (§1) 2. In einer weiteren Testanordnung wurde die Wirkung und der Mechanismus der Verbindungen auf die Ca²⁺-Fluxe wie folgt nachgewiesen: Die Bestimmung des Ca²⁺-Efflux wurde nach der Methode von C. van Breemen, P. Aarsonson, R. Loutzenheiser und K. Meisheri (Chest 78, 157S-165S (1980) und von R. Casteels und G.Droogman (J.Physiol. 317, 263-276 (1981)) durchgeführt. Mit dem Ca²⁺-Efflux wird die intrazelluläre Ca²⁺-Freisetzung auf eine Rezeptorstimulation gemessen. Damit ist eine quantitative Beurteilung des Ausmaßes der Rezeptor-vermittelten Wirkung möglich.
(§2) Untersuchungen zum Ca²⁺-Efflux an der Kaninchen-Aorta ergaben, daß die Verbindungen der Formel I den durch Kaliumionen und Noradrenalin stimulierten Ca²⁺-Efflux hemmen.
(§3) Versuche mit der oben genannten Verbindung A (N-[N-(1-L-Ethoxycarbonyl-3-phenylpropyl)-L-alanyl]4,5,6,7-tetrahydro-thieno[2,3-c]pyridin-7-L-carbonsäure ergaben: Die Hemmung des durch 10⁻⁵ mol/l Noradrenalin stimulierten Ca²⁺ Efflux liegt bei 25, 24 und 30 % mit der oben angeführten Verbindung A in den entsprechenden Konzentrationen 10⁻⁶, 10⁻⁵ und 10⁻⁴ mol/l. Das weist auf eine grundsätzlich nur partielle Hemmung hin. Der Ca²⁺-Influx durch K⁺ Depolarisation wird zu 38% gehemmt (10⁻⁵ mol/l der Verbindung A).

[4] = system: Ca²⁺-Influx durch K⁺ Depolarisation; assay: Ca2+ influx by K+ depolarisation; format: cell-based, Kaninchen; details: Oryctolagus cuniculus; compound 10⁻⁵ mol/l; read-out: Hemmung des Ca²⁺-Influx durch K⁺ Depolarisation
Description: as §1, §2, §3

SMILES | ED50 [1] [mg/kg] | Wiederauftreten regelmäßiger Kontraktionen nach Reperfusion [2] | also measured
CC(CS)C(=O)N1CCC[C@@H]1C(=O)O (stereo partly drawn) [Captopril, D-2-Methyl-3-mercaptopropanoyl-L-prolin] | 1.52 | deutlich schwächer | Antagonismus der Scopolaminwirkung (Mäusen (ChbI:NMRI); 10 mg/kg p.o.): unwirksam; Antagonismus der Scopolaminwirkung (Mäusen (ChbI:NMRI); 30 mg/kg p.o.): unwirksam
CCOC(=O)[C@H](CCc1ccccc1)N[C@@H](C)C(=O)N1CCc2ccsc2[C@H]1C(=O)O [A, N-[N-(1-L-Ethoxycarbonyl-3-phenylpropyl)-L-alanyl]-4,5,6,7-tetrahydro-thieno[2,3-c]pyridin-7-L-carbonsäure] | 0.63 | zeitliche Verkürzung des Wiederauftretens regelmäßiger Kontraktionen | inhibition at 100 µM ([3]; compound 10⁻⁴ mol/l): 30%; inhibition at 10 µM ([3]; compound 10⁻⁵ mol/l): 24%; inhibition at 1 µM ([3]; compound 10⁻⁶ mol/l): 25%; inhibition at 10 µM [4]: 38%; Antagonismus der Scopolaminwirkung (Mäusen (ChbI:NMRI); dose above 0,1 mg/kg p.o. (especially from 0,5 mg/kg p.o.)): wirksam
CCOC(=O)[C@H](CCc1ccccc1)N[C@@H](C)C(=O)N1CCC[C@H]1C(=O)O [Enalapril, 1-N-[(S)-1-Ethoxycarbonyl-3-phenylpropyl]-S-alanyl-S-prolin] | 1.59 | deutlich schwächer | Antagonismus der Scopolaminwirkung (Mäusen (ChbI:NMRI); 5 mg/kg p.o.): unwirksam
C[C@H](N[C@@H](CCc1ccccc1)C(=O)O)C(=O)N1Cc2ccsc2C[C@H]1C(=O)O [E, N-[N-(1-L-Carboxy-3-phenylpropyl)-L-alanyl]-4,5,6,7-tetrahydro-thieno[3,2-c]pyridin-6-L-carbonsäure] | 1.1 | – | –
C[C@H](N[C@@H](CCc1ccccc1)C(=O)O)C(=O)N1Cc2nc[nH]c2C[C@H]1C(=O)O [D, N-[N-(1-L-Carboxy-3-phenylpropyl)-L-alanyl]-4,5,6,7-tetrahydro-1H-imidazo[4,5-c]pyridin-6-L-carbonsäure] | 1.32 | – | –

From patent EP0279357A2, “Composition for the treatment of coronary diseases or organic brain syndrome” (BOEHRINGER INGELHEIM KG, priority 1987, dated 1988)
